This is an account of results in patent US4918064A, “Phenyl glycines for use in reducing neurotoxic injury” (G. D. Searle & Co., priority 1987, dated 1990).

Each structure is given as a SMILES string.

The test system of assay [1] is NMDA-induced focal potentials, hippocampal slices. Briefly: In Vitro Hippocampal Slice Assay (NMDA-induced focal potentials). The format is cell-based, Sprague-Dawley albino rat. To be noted: Rattus norvegicus; 100 μM NMDA pressure ejections, recorded in CA1. The protocol:
Hippocampal slices were prepared from male, Sprague-Dawley albino rats (100-300 gm) and maintained as described previously [Ganong, A. H., Lanthorn, T. H., Cotman, C. W., "Kynurenic Acid Synaptic and Acidic Amino Acid-Induced Responses in the Rat Hippocampus and Spinal Cord", Brain Research, 273 170-174 (1983)]. The hippocampus was removed in the cold and sliced to a thickness of 450 microns on a McIlwain tissue chopper in experimental medium (124 mM NaCl, 2.5 mM KCl, 1.0 mM KH2 PO4, 26.4 mM NaHCO3, 2 mM CaCl2, 1.5 mM MgSO4, and 10 mM D-glucose) with 10 mM Hepes. The slices were quickly transferred to a static bath and rinsed with experimental medium (without Hepes) and maintained at 34°-35° C. in a humidified chamber with 95% oxygen and 5% carbon dioxide. As needed, slices were transferred from the static bath to a small perfusion chamber where they were secured with an upper net and completely submerged in a continuously flowing experimental medium (2.0 ml/min). The Schaffer collateral/commissural-CAl (S/C-CAl) synaptic response was stimulated (0.05 Hz; 0.01 msec. single duration shock) with bipolar electrodes (Rhodes, Inc.) from stratum radiatum at the CA2-CA3 border. Evoked field EPSPs and drug-induced focal potentials were recorded in the middle portion of CAl. […]

For a further assay, the system named is hippocampal neurons. The format is cell-based, Sprague-Dawley rat. The settings on record: 1 μM compound.
Assay [2] addresses Quis (quisqualate) receptor. Description: [3H]AMPA (QUIS) receptor binding assay, synaptic plasma membranes. The settings on record: [3H]AMPA 10 nM, 100 mM KSCN, 0-4° C., 10 min. Here is the method: (§1) Synaptic plasma membranes (SPM) were prepared as previously described [Monahan, J. B. and Michel, J., "Identification and Characterization of an N-methyl-D-aspartate-specific L[^3 H]glutamate Recognition Site in Synaptic Plasma Membranes, J. Neurochem., 48, 1699-1708 (1987)]. The SPM were stored at a concentration of 10-15 mg/ml in 0.32M sucrose, 0.5 mM EDTA, 1 mM MgSO4, 5 mM Tris/SO4, pH 7.4, under liquid nitrogen. The identity and purity of the subcellular fractions were confirmed by both electron microscopy and marker enzymes. Protein concentrations were determined by using a modification of the method of Lowry [Ohnishi, S. T. and Barr, J. K., "A Simplified Method of Quantitating Proteins Using the Biuret and Phenol Reagents", Anal. Biochem., 86, 193-197 (1978)].
(§2) The SPM were treated identically for the [^3 H]AMPA (QUIS), [^3 H]kainate and sodium-dependent L-[^3 H]-glumatate binding assays. The SPM were thawed at room temperature, diluted twenty-fold with 50 mM Tris/acetate, pH 7.4, incubated at 37° C. for 30 minutes, and centrifuged at 100,000 g for 15 minutes. The dilution, incubation, and centrifugation was repeated a total of three times.
(§3) The basic procedure for the receptor subclass binding assays was similar. This general method involved adding the radioligand (12.5 nM L-[^3 H]glutamate; 0.5 nM [^3 H]kainate or 10 nM [^3 H]AMPA) to the appropriate concentration of the test compound and initiating the assay by the addition of ice cold synaptic plasma membranes (0.2-0.45 mg). The binding assays were performed in 1.5 mL centrifuge tubes with the total volume adjusted to 1.0 mL. .Additions of test compounds were made in 50 mM Tris/acetate, pH 7.4 and incubations were carried out at 0°-4° C. The incubation time for the NMDA and the AMPA binding assays was 10 minutes, for the kainate binding assay 60 minutes and for the sodium-dependent glutamate binding assay 15 minutes. The AMPA binding assay contained 100 mM KSCN and the sodium-dependent glutamate binding assay contained 150 mM sodium acetate in addition to the previously described reagents.
(§4) To terminate the incubation, the samples were centrifuged for 15 minutes at 12,000 g and 4° C. in a Beckman Microfuge 12. The supernatant was aspirated and the pelleted membranes dissolved in Beckman BTS-450 tissue solubilizer for a minimum of 6 hours at room temperature. Beckman MP scintillation cocktail containing 7 mL/1 acetic acid was then added and the samples counted on a Beckman LS 5800 or 3801 liquid scintillation counter with automatic corrections for quenching and counting efficiency.
(§5) Nonspecific binding was defined as the residual binding in the presence of either excess L-glutamate (0.1-0.4 mM), kainate (0.01 mM), or NMDA (0.5 mM), and was 15-25% of the total binding in the NMDA binding assay, 19-27% in the AMPA binding assay, 20-30% in the kainate binding assay and 10-15% in the sodium-dependent binding assay. Radioligand binding to the synaptic plasma membranes was analyzed using Scatchard and Hill transformations and the Ki values of the compounds determined using logit-log transformations. Calculations and regression analysis were performed using templates developed for Lotus 1, 2, 3 as previously described [Pullan, L. M. "Automated Radioligand Receptor Binding Analysis with Templates for Lotus", Computer Appln. Biosci., 3 131 (1987)]. Binding results are reported in Table II for example compounds of the invention. […]

For the next assay, the target named is KA (kainate) receptor. Description: [3H]kainate receptor binding assay, synaptic plasma membranes. To be noted: [3H]kainate 0.5 nM, 0-4° C., 60 min. The protocol:
as §1, §2, §3, §4, §5

Description for hippocampal neurons: Hippocampal neurons were obtained from embryonic day 17 Sprague-Dawley rats. The brains were removed and the hippocampus dissected, placed in ice-cold Leibovitz L-15 medium, carefully stripped of any remaining meninges, and minced into small pieces using scissors. The tissue was rinsed with calcium-magnesium-free Hanks' Balanced Salt Solution and incubated with 0.25% trypsin (Worthington), 40 μg/ml DNAase (Sigma) for 30 minutes at 36° C. Following incubation, the cells were rinsed with 10% serum-containing medium and dissociated by gentle trituration using a reduced bore diameter Pasteur pipet. The cells were plated on a polylysine-coated (0.5 rg/ml, Sigma) 96-well microtiter plates at 30,000 cells/well. Cells were maintained in fluorodeoxyuridine (5 μM) containing chemically defined medium [Bottenstein, J., Sato, G., "Growth of a Rat Neuroblastoma Cell Line in Serum-free Supplemented Medium", Proc. Nat'l. […]
The neuronal survival assay utilized the compound MTT [3-(4,5-dimethylthiazol-2-yl)-2,5-diphenyl tetrazolium bromide], a pale yellow substrate that is cleaved by the mitochondrial enzyme succinate-dehydrogenase to yield a dark blue formazan product. […] The precipitate was then solubilized using 0.08N HCl/isopropanol mixture and the absorbance measured with an ELISA plate reader (Dynatech MR600) using a test wavelength of 570 nm and a reference wavelength of 630 nm. […]

In turn, `NC(C(=O)O)c1ccc(CP(=O)(O)O)cc1` (stereo not shown) [Example VI, 4-(Phosphonomethyl)phenylglycine] showed an IC50 in assay [1] of 4 µM. Also, the “protection of neurons from sodium azide toxicity” value with hippocampal neurons is listed as “significant protection”. Moreover, the Ki in assay [2] was > 300 µM. In addition, at KA (kainate) receptor, the “Receptor binding, KA (Ki)” value is > 300 µM.
